In brackets after ≈: the same amount, converted by molar mass. Read-outs that look alike come from different tables or passages of the source.
What was measured:
[1] = Water dispersity of triamterene-Gelucire 44/14 melts; type: physicochemical; details: 30 mg triamterene in melted Gelucire, drug-lipid melt in 900 ml water
Method: To examine the compositions described above, triamterene was used as a model drug. […] In experiment, 30 mg triamterene was dissolved in various amounts of melted Gelucire to make the drug concentration to be 5%, 7.5%, 10% 12.5% 15% and 20%, respectively. Then the drug-lipid melts were dissolved in 900 ml of water. Up to 10% of triamterene in Gelucire, the drug was dispersed in water without precipitates. At higher drug contents (i.e. less lipids), precipitates were observed under a microscope. Drug concentration (in Gelucire) of 10% was selected-for later experiments.

[2] = cited from earlier work
[3] = Size distribution of drug-lipid droplets after dissolution (sub-micron particle sizer); type: physicochemical; details: triamterene from active-release tablets
Method: The morphologies of triamterene after dissolution in 0.1 M HCl and in water were characterized using a sub-micron particle sizer. The aliquots collected at the end of dissolution were centrifuged under the same conditions as in Example 4 prior to measurement. […] The impregnated powder was suspended in 900 ml PBS buffer at 37° C. with stirring at 100 rpm. […] The aliquots were collected at programmed time intervals, followed by centrifugation at 1000 rpm in an Eppendorf tube for 1 min.

- drug concentration in Gelucire dispersed in water without precipitates [1]: Up to 10%
- mean diameter of droplets ([3]; dissolution in water): 277 nm
- particles after dissolution ([3]; dissolution medium 0.1 M HCl): no particles were detected
Compound: Nc1nc(N)c2nc(-c3ccccc3)c(N)nc2n1 [triamterene]
- solubility ([2]; pH 1 buffer): 321 µg/mL (≈ 1270 µM)
- solubility ([2]; pH 7): 45 µg/mL (≈ 178 µM)

Reference: US20040001888A1, “Solid dosage forms for rapid dissolution of poorly soluble drugs” (BioPharm Solutions Inc., priority 2002, published 2004)
